Here are results for 29 compounds from ChEMBL document CHEMBL3627615, “Discovery of the disubstituted oxazole analogues as a novel class anti-tuberculotic agents against MDR- and XDR-MTB” (Bioorg Med Chem Lett, 2015).

Values after ≈ are worked out from the molar mass of the structure shown. A value given as a limit tells only on which side of the number the result lay.

As a reminder, the IC50 is the concentration at which inhibition is half-maximal. The low end stands for higher potency, the high end for lower potency. A word on the MIC90: it is the lowest concentration that inhibits either 90% of growth or 90% of the strains tested, depending on the study. A high value points to weaker potency. The MIC80 is an inhibitory concentration at the 80% level, which refers to growth in some studies and to a panel of isolates in others.

In assay [1] the test system is HEK293. Briefly: Cytotoxicity against human HEK293 cells after 36 hrs by MTT assay. Conditions: HEK293, 36 h. The format is cell-based. Background: Tetrazolium assays rely on reduction of a dye to a coloured formazan, in cell work by metabolically active cells.
Assay [2] relates to Mycobacterium tuberculosis. Briefly: Antimycobacterial activity against Mycobacterium tuberculosis H37Rv ATCC 27294 after 5 days by microplate alamar blue assay. The format is functional. Conditions: H37Rv ATCC 27294, 120 h. In general terms: The colour change of resazurin is a common sign of viable cells or microbes.
Assay [3] deals with Staphylococcus aureus. In words: Antibacterial activity against Staphylococcus aureus by agar dilution method. The format is functional.
Assay [4] has as its system Acinetobacter calcoaceticus. Briefly: Antibacterial activity against Acinetobacter calcoaceticus by agar dilution method. The format is functional.
Assay [5] deals with Serratia marcescens. Briefly: Antibacterial activity against Serratia marcescens by agar dilution method. The format is functional. In general terms: Agar dilution tests growth on a series of plates holding different concentrations.
Assay [6] concerns Proteus mirabilis. In words: Antibacterial activity against Proteus mirabilis by agar dilution method. The format is functional.
Assay [7] has as its system Pseudomonas aeruginosa. Briefly: Antibacterial activity against Pseudomonas aeruginosa by agar dilution method. The format is functional.
Assay [8] relates to Klebsiella pneumoniae. In words: Antibacterial activity against Klebsiella pneumoniae by agar dilution method. The format is functional.
In assay [9] the test system is Proteus vulgaris. In words: Antibacterial activity against Proteus vulgaris by agar dilution method. The format is functional.
Assay [10] relates to Escherichia coli. In words: Antibacterial activity against Escherichia coli by agar dilution method. The format is functional.

For `COc1ccc(C(=O)C2CCN(Cc3coc(-c4ccc(F)cc4)n3)CC2)cc1OC`, the IC50 in [1] is more than 150 µg/mL. The same compound came in with an MIC90 in assay [2] of 8 µg/mL (≈ 18.8 µM).
For `O=C(c1ccc2c(c1)OCCO2)C1CCN(Cc2coc(-c3ccc(F)cc3)n2)CC1`, in that order: more than 150 µg/mL and 8 µg/mL (≈ 18.9 µM).
Consider `O=C(c1ccc2c(c1)OCCO2)C1CCN(Cc2coc(-c3ccc(Cl)cc3)n2)CC1`, for which the MIC80 in [3], in [4], in assay [5], in assay [6], in [7] and in assay [8] was more than 128 µg/mL in each case. Moreover, the MIC80 in assay [9] and in assay [10] was more than 128 µg/mL each time. This compound gave an IC50 in assay [1] of more than 150 µg/mL. In assay [2], this compound registered an MIC90 of 2 µg/mL (≈ 4.56 µM).
Regarding `O=C(c1ccc2c(c1)OCCO2)C1CCN(Cc2coc(-c3ccc(Br)cc3)n2)CC1`, the IC50 in assay [1] was more than 150 µg/mL. This compound also had an MIC90 in [2] of 8 µg/mL (≈ 16.6 µM).
The corresponding values for `O=C(c1ccc2c(c1)OCCO2)C1CCN(Cc2coc(-c3ccccc3)n2)CC1` are more than 150 µg/mL and 4 µg/mL (≈ 9.89 µM).
In turn, `O=C(c1ccc2c(c1)OCCO2)C1CCN(Cc2coc(-c3ccc(C(F)(F)F)cc3)n2)CC1` returned an IC50 in [1] of more than 150 µg/mL. The MIC90 in assay [2] was determined as 32 µg/mL (≈ 67.7 µM).
The corresponding values for `O=C(c1ccc2c(c1)OCCO2)C1CCN(Cc2coc(-c3ccc(F)c(F)c3)n2)CC1` are more than 150 µg/mL and 8 µg/mL (≈ 18.2 µM).
For `O=C(c1ccc2c(c1)OCCO2)C1CCN(Cc2coc(-c3ccccc3F)n2)CC1`, in that order: more than 150 µg/mL and 8 µg/mL (≈ 18.9 µM).
For `O=C(c1ccc2c(c1)OCCO2)C1CCN(Cc2coc(-c3cccc(F)c3)n2)CC1`, in that order: more than 150 µg/mL and 4 µg/mL (≈ 9.47 µM).
As for `COc1ccc(-c2nc(CN3CCC(C(=O)c4ccc5c(c4)OCCO5)CC3)co2)cc1`, the IC50 in [1] is more than 150 µg/mL. The compound further gave an MIC90 in assay [2] of 8 µg/mL (≈ 18.4 µM).
Turning to `Cc1ccc(-c2nc(CN3CCC(C(=O)c4ccc5c(c4)OCCO5)CC3)co2)cc1`, the IC50 in [1] was more than 150 µg/mL. The compound also yielded an MIC90 in [2] of 64 µg/mL (≈ 153 µM).
As to `CC(C)(C)c1ccc(-c2nc(CN3CCC(C(=O)c4ccc5c(c4)OCCO5)CC3)co2)cc1`, the MIC80 in assay [3], in assay [4], in [5], in assay [6], in [7] and in assay [8] was more than 128 µg/mL throughout. Further, the MIC80 in [9] and in assay [10] was more than 128 µg/mL in each case. Also, the IC50 in assay [1] was more than 150 µg/mL. The compound also came in with an MIC90 in assay [2] of 8 µg/mL (≈ 17.4 µM).
`O=C(c1ccc2c(c1)OCCO2)C1CCN(Cc2coc(-c3cccnc3)n2)CC1` showed an IC50 in assay [1] of more than 150 µg/mL. The compound also showed an MIC90 in [2] of 32 µg/mL (≈ 78.9 µM).
The corresponding values for `O=C(c1ccc2c(c1)OCCO2)C1CCN(Cc2coc(-c3ccco3)n2)CC1` are more than 150 µg/mL and 16 µg/mL (≈ 40.6 µM).
For `O=C(c1ccc2c(c1)OCCO2)C1CCN(Cc2coc(-c3ccoc3)n2)CC1`, the IC50 in assay [1] was more than 150 µg/mL. Also, in assay [2], the MIC90 came to 32 µg/mL (≈ 81.1 µM).
The compound `O=C(c1ccc2c(c1)OCCO2)C1CCN(Cc2csc(-c3ccc(Cl)cc3)n2)CC1` registered an MIC90 in [2] of more than 128 µg/mL.
On the same count and under the same terms, then `CC(C)(C)c1ccc(-c2nc(CN3CCC(C(=O)c4ccc5c(c4)OCCO5)CC3)cs2)cc1`, with more than 128 µg/mL; and `O=C(c1ccc2c(c1)OCCO2)C1CCN(Cc2cc(-c3ccc(F)cc3)on2)CC1`, with more than 128 µg/mL.
For `O=C(c1ccc2c(c1)CCCC2)C1CCN(Cc2coc(-c3ccc(F)cc3)n2)CC1`, the MIC80 in assay [3], in [4], in [5], in [6], in [7] and in [8] was more than 128 µg/mL each time. For the same compound, the MIC80 in assay [9] and in [10] was more than 128 µg/mL throughout. The IC50 in [1] is more than 150 µg/mL. Moreover, the MIC90 in assay [2] came out at 1 µg/mL (≈ 2.39 µM).
`O=C(c1ccc(F)c(F)c1)C1CCN(Cc2coc(-c3ccc(F)cc3)n2)CC1` returned an IC50 in [1] of more than 150 µg/mL. In assay [2], the MIC90 stood at 2 µg/mL (≈ 5 µM).
For `O=C(c1ccccc1)C1CCN(Cc2coc(-c3ccc(F)cc3)n2)CC1`, in that order: more than 150 µg/mL and 2 µg/mL (≈ 5.49 µM).
`Cc1ccc(C(=O)C2CCN(Cc3coc(-c4ccc(F)cc4)n3)CC2)cc1C` returned an IC50 in assay [1] of more than 150 µg/mL. In assay [2], this compound displayed an MIC90 of 8 µg/mL (≈ 20.4 µM).
Regarding `Cc1ccc(C(=O)C2CCN(Cc3coc(-c4ccc(F)cc4)n3)CC2)cc1`, the IC50 in assay [1] was more than 150 µg/mL. In assay [2], the MIC90 is 4 µg/mL (≈ 10.6 µM).
On to `COc1ccc(C(=O)C2CCN(Cc3coc(-c4ccc(F)cc4)n3)CC2)cc1`, for which the IC50 in [1] is more than 150 µg/mL. In [2], this compound returned an MIC90 of 4 µg/mL (≈ 10.1 µM).
For `CC(C)(C)c1ccc(-c2nc(CN3CCC(C(=O)c4ccc5c(c4)CCCC5)CC3)co2)cc1`, in that order: more than 150 µg/mL and 8 µg/mL (≈ 17.5 µM).
Turning to `CC[C@@H](CO)NCCN[C@@H](CC)CO` [ETHAMBUTOL], in assay [2], the MIC90 was less than 0.5 µg/mL.
The same measure, in the same setting: the value for `NNC(=O)c1ccncc1` [ISONIAZID] was less than 0.5 µg/mL; that for `CO[C@H]1/C=C/O[C@@]2(C)Oc3c(C)c(O)c4c(O)c(c(/C=N/N5CCN(C)CC5)c(O)c4c3C2=O)NC(=O)/C(C)=C\C=C\[C@H](C)[C@H](O)[C@@H](C)[C@@H](O)[C@@H](C)[C@H](OC(C)=O)[C@@H]1C` [RIFAMPIN] was less than 0.5 µg/mL.
Still for that read-out and setting: then `CN[C@@H]1[C@H](O[C@H]2[C@H](O[C@H]3[C@H](O)[C@@H](O)[C@H](N=C(N)N)[C@@H](O)[C@@H]3N=C(N)N)O[C@@H](C)[C@]2(O)C=O)O[C@@H](CO)[C@H](O)[C@H]1O` [STREPTOMYCIN], with less than 0.5 µg/mL.
